Measured values as given in BindingDB's records for patent US20230391748 (Rigel Pharmaceuticals, 2023).
pIC50: −log10 of the molar value.

Biological target: T1, Interleukin-1 receptor-associated kinase 4 (Homo sapiens, UniProt Q9NWZ3)
T1 sequence (Q9NWZ3 whole entry): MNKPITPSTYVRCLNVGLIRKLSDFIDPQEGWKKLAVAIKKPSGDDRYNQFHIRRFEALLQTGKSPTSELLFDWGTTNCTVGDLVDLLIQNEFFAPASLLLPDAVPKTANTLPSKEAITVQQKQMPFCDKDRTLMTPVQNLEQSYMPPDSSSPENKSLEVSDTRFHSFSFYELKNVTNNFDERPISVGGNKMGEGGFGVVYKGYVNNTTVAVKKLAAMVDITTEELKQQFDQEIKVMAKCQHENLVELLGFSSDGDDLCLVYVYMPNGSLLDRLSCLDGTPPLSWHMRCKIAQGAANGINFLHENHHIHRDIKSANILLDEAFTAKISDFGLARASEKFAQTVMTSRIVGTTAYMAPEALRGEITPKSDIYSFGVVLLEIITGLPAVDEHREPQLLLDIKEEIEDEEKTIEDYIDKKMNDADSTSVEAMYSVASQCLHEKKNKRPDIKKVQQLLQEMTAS
Experiment: IRAK4 ADP-Glo Assay
Protocol: The ADP-Glo reagents were thawed at ambient temperature. The Kinase Detection Reagent was prepared by mixing kinase detection buffer with the lyophilized kinase detection substrate, and set aside.A stock volume of 5 Reaction Kinase Buffer was made with a final concentration of 100 mM MgCl2, 200 mM Tris-HCl, and 0.5 mg/ml of BSA, in distilled H2O with a final pH7.4. A 2 working stock volume of Reaction Kinase Buffer was made containing a final concentration of 100 μM DTT.The components of IRAK4 Enzyme were thawed on ice. Diluted IRAK4 in 1 Kinase Reaction Buffer (diluted from 2 buffer) was prepared at 5.0 ng/μl. […] Then diluted 1:5 in 2 Reaction Buffer in a 96 well plate. 1.0 μl was transferred to a 384 well plate in duplicate. […] 1 μl of 1 mg/ml stock solution of MBP substrate was added NOTE: MBP can be combined with ATP mix with equal volume and then added at 2 μl/well. Final reaction volume was 5 μl.The plate was centrifuged and the reaction mixture was incubated at room temperature for 60 minutes or at 30 C. for 30 minutes.The reaction was terminated and the remaining ATP was depleted by adding 5 μl of ADP-Glo Reagent. The 384-well plate was centrifuged and then the reaction mixture was incubated for another 40 minutes at ambient temperature.

CC(C)Oc1cc2c(OC[C@@H]3CC(F)(F)C(=O)N3)ncc(C#CC3(O)CCN(C(=O)OC(C)(C)C)CC3)c2cc1C(N)=O [US20230391748, Compound I-52]
pIC50: 7.74

CC(C)Oc1cc2c(O[C@@H]3CCCNC3)ncc(C#CC3(O)CCCC3)c2cc1C(N)=O [US20230391748, Compound I-85]
pIC50: 7.46
